One test concerns the target T1, pig TRPM8 (Sus scrofa, UniProt F1SM15).
T1 construct: expressed in transfected cells; host or cells: CHO (pcDNA5/FRT/TO vector; hygromycin B and blasticidin selection)
The test is described as follows: In vitro pig TRPM8 fluorescence calcium flux assay (recombinant CHO cells, Fluo4-AM, FDSS6000). The test is classed as cell-based. The conditions noted are these: recombinant CHO cells expressing pig TRPM8; menthol-related EC50, normalized to 100 μM menthol. How it is done:
(§1) In Vitro Pig and Human TRPM8 Fluorescence Calcium Flux Assays
(§2) For functional expression of TRPM8, the full-length cDNA encoding human (NM_024080) and pig (XM_001927892.1) TRPM8 sequences were subcloned into p658 and pcDNA5/FRT/TO mammalian expression vectors, respectively. Engineered recombinant CHO cell lines expressing human or pig TRPM8 were generated. Culture media was Ham-F12 with 10% FCS for both lines, and for the pig cell line only 400 μg/ml hygromycin B and 30 μg/mL blasticidin were added as selection antibiotics (all reagents were obtained from Invitrogen, Fisher Scientific). Cells were grown in culture flasks up to 80% confluence where they were harvested using accutase (Sigma, MO, USA) to detach the cells by enzymatic dissociation and either seeded directly into assay plates or cryopreserved for future use.
(§3) For calcium flux assays, cells were plated into clear base poly-D-lysine coated 384-well plates (BD Biosciences, NJ USA) at a density of 15,000 cells per well in appropriate culture medium and grown overnight. The following day, all medium was removed then the cells were incubated with 2 μM of Fluo4-AM Dye (Molecular Probes) prepared in complete HBSS assay buffer containing 20 mM HEPES, 0.1% BSA, and 2.5 mM probenecid at room temperature for one hour. Following incubation, plates were inserted into a FDSS6000 instrument (Hamamatsu, Photonics, Japan) instrument, where cells were challenged with compounds of the formula (at varying concentrations) and intracellular calcium was measured kinetically for 3 min after addition.
(§4) This protocol allowed the determination of an EC50 value, from the sixteen-point dose response data, for each compound of the formula tested. Maximal fluorescence intensity achieved upon addition of 100 μM menthol (stock solution prepared in ethanol from solid, Sigma-Aldrich) was exported from the FDSS and further analyzed using IDBS XLFit 5. Data were normalized to the average 100 μM menthol response (maximum control wells) included in each plate. The dose response curves from the average of wells for each data point were analyzed by using nonlinear regression of sigmoidal dose response (formula 205). Finally, the (menthol-related) EC50 values (Half maximal effective concentration) were calculated with the best-fit dose curve determined by IDBS XLFit 5 software.

The next test deals with T2, human TRPM8 (Homo sapiens, UniProt Q7Z2W7).
T2 construct: expressed in transfected cells; host or cells: CHO (p658 mammalian expression vector)
T2 sequence (Q7Z2W7 whole entry): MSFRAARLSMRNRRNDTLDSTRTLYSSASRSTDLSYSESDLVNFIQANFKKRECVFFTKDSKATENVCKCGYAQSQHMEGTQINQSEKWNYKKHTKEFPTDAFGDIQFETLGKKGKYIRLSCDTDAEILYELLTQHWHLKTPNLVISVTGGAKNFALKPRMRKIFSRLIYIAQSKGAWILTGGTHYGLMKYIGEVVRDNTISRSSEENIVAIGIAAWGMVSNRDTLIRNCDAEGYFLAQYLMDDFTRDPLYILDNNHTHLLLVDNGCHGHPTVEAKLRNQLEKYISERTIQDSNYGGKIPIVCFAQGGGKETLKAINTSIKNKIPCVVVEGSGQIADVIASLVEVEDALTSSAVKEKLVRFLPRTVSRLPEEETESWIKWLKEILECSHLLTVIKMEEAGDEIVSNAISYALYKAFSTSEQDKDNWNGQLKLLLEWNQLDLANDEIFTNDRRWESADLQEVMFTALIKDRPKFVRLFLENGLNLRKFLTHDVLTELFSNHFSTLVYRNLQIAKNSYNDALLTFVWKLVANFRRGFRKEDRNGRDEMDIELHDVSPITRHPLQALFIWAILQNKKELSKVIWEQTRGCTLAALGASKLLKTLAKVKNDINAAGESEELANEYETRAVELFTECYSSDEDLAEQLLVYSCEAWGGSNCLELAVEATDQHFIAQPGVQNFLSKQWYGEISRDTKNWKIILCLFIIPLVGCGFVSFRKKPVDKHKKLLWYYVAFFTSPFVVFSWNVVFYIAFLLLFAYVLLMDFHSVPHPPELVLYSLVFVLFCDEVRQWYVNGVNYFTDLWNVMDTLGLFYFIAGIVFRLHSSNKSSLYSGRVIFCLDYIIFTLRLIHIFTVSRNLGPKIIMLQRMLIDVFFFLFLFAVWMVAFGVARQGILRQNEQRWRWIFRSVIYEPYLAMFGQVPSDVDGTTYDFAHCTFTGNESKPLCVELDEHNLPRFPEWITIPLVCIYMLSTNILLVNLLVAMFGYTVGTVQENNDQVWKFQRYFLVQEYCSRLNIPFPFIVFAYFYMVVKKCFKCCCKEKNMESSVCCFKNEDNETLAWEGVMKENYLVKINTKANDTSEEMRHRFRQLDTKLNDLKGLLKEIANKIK
Briefly: In vitro human TRPM8 fluorescence calcium flux assay (recombinant CHO cells, Fluo4-AM, FDSS6000). In kind it is cell-based. The conditions noted are these: recombinant CHO cells expressing human TRPM8; menthol-related EC50, normalized to 100 μM menthol. The protocol:
as §1, §2, §3, §4
For orientation: A change in cytosolic calcium serves as a functional read-out for many receptors and channels.

The structures appear in SMILES notation.

T1 sequence (F1SM15 1-1104): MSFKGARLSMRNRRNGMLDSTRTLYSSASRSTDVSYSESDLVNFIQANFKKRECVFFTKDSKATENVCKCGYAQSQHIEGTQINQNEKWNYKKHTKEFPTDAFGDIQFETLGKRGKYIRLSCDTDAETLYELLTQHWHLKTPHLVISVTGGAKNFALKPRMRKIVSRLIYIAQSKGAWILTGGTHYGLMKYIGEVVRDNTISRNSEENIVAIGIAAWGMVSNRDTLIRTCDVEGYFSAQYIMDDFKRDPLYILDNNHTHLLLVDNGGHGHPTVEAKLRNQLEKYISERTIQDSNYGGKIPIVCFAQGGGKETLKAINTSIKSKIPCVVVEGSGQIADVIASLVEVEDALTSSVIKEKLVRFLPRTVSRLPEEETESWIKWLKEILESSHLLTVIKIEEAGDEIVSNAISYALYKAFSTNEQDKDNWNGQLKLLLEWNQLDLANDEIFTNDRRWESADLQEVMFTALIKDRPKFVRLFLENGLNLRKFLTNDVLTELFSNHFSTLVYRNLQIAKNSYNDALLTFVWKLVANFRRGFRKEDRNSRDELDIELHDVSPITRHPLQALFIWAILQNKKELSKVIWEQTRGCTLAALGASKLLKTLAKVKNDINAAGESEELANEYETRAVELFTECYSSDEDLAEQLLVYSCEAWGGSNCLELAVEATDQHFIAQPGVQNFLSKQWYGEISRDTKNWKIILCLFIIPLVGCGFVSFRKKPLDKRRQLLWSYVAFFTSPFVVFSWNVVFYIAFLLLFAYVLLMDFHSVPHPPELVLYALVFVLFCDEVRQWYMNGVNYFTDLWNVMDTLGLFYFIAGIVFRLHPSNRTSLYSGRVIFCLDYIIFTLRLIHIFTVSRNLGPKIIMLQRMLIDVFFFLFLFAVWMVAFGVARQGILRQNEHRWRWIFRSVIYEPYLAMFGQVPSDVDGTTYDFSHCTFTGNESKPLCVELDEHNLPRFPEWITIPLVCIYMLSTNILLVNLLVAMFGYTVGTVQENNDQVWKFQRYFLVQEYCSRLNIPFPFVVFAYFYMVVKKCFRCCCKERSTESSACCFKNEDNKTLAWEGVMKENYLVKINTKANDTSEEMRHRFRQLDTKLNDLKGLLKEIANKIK

With `CC(C)[C@@H]1CC[C@@H](C)C[C@@]1(O)C(=O)NCCc1ccc(O)cc1O` [Example 173, (1S,2S,5R)-N-[2-(2,4-dihydroxyphenyl)ethyl]-1-hydroxy-2-isopropyl-5-methyl-cyclohexanecarboxamide], the values for the half-maximal effective concentration (EC50) at pig TRPM8 and on human TRPM8 were 21.7 nM and 24.6 nM, respectively.
On the same counts, the results for `CC(C)[C@@H]1CC[C@@H](C)C[C@@]1(O)C(=O)NCC(=O)c1ccc(O)cc1O` [Example 102, (1S,2S,5R)—N-(2-(2,4-dihydroxyphenyl)-2-oxoethyl)-1-hydroxy-2-isopropyl-5-methylcyclohexane-1-carboxamide] are 69 nM and 42 nM.
For `Cc1ccc(CCNC(=O)[C@]2(O)C[C@H](C)CC[C@H]2C(C)C)cc1` [Example 60, (1S,2S,5R)-1-hydroxy-2-isopropyl-5-methyl-N-(4-methylphenethyl)cyclohexane-1-carboxamide], the figures for the concentration for a half-maximal effect (EC50) on pig TRPM8 and at human TRPM8 were 7.1 nM and 43.5 nM, respectively.
For `CC(C)[C@@H]1CC[C@@H](C)C[C@@]1(O)C(=O)NC(CCO)c1cccc(O)c1` (stereo partly drawn) [Example 163, (1S,2S,5R)-1-hydroxy-N-[3-hydroxy-1-(3-hydroxyphenyl)propyl]-2-isopropyl-5-methyl-cyclohexanecarboxamide], the results for the EC50 on pig TRPM8 and at human TRPM8 were 940 nM and 658 nM, respectively.
With `CC(C)[C@@H]1CC[C@@H](C)C[C@@]1(O)C(=O)NCC(O)c1ccccc1F` (stereo partly drawn) [Example 157, (1S,2S,5R)-N-[2-(2-fluorophenyl)-2-hydroxy-ethyl]-1-hydroxy-2-isopropyl-5-methyl-cyclohexanecarboxamide], the EC50 (commonly the concentration giving half of the maximal effect) worked out at 4.7 nM at pig TRPM8 and 8.4 nM at human TRPM8.
With `CC(C)[C@@H]1CC[C@@H](C)C[C@@]1(O)C(=O)NCC(=O)c1ccc(O)c(O)c1` [Example 100, (1S,2S,5R)—N-(2-(3,4-dihydroxyphenyl)-2-oxoethyl)-1-hydroxy-2-isopropyl-5-methylcyclohexane-1-carboxamide], the EC50 at pig TRPM8 was determined as 2.9 nM; at human TRPM8, 2.2 nM.
On to `COC(=O)Cc1ccccc1CCNC(=O)[C@]1(O)C[C@H](C)CC[C@H]1C(C)C` [Example 77, methyl 2-(2-(2-((1S,2S,5R)-1-hydroxy-2-isopropyl-5-methylcyclohexane-1-carboxamido)ethyl)phenyl)acetate], for which the results for the EC50 on pig TRPM8 and on human TRPM8 were 93 nM and 90 nM, respectively.
On the same counts, the results for `COc1ccc(C(=O)CNC(=O)[C@]2(O)C[C@H](C)CC[C@H]2C(C)C)c(OC)c1` [Example 99, (1S,2S,5R)—N-(2-(2,4-dimethoxyphenyl)-2-oxoethyl)-1-hydroxy-2-isopropyl-5-methylcyclohexane-1-carboxamide] are 99.1 nM and 110 nM.
Consider `CC(C)[C@@H]1CC[C@@H](C)C[C@@]1(O)C(=O)NCC(=O)c1cc(F)ccc1F` [Example 139, (1S,2S,5R)-N-[2-(2,5-difluorophenyl)-2-oxo-ethyl]-1-hydroxy-2-isopropyl-5-methyl-cyclohexanecarboxamide], for which the EC50 on pig TRPM8 worked out at 1.7 nM; on human TRPM8, 5.3 nM.
On the same counts, the results for `[2H]C(O)(CNC(=O)[C@]1(O)C[C@H](C)CC[C@H]1C(C)C)c1ccccc1` (single isomer, unassigned) [Example 91] are 5.2 nM and 19 nM.
With `Cc1cccnc1CCNC(=O)[C@]1(O)C[C@H](C)CC[C@H]1C(C)C` [Example 127, (1S,2S,5R)-1-hydroxy-2-isopropyl-5-methyl-N-[2-(3-methyl-2-pyridyl)ethyl]cyclohexanecarboxamide], the EC50 came out at 152 nM on pig TRPM8 and 359 nM on human TRPM8.
On the same counts, the results for `CC(C)[C@@H]1CC[C@@H](C)C[C@@]1(O)C(=O)NC1CCC(F)(F)CC1` [Example 147, (1S,2S,5R)-N-(4,4-difluorocyclohexyl)-1-hydroxy-2-isopropyl-5-methyl-cyclohexanecarboxamide] are 901 nM and 1160 nM.
Take `COC(=O)CC(CNC(=O)[C@]1(O)C[C@H](C)CC[C@H]1C(C)C)c1ccccc1` (stereo partly drawn) [Example 65, methyl 4-((1S,2S,5R)-1-hydroxy-2-isopropyl-5-methylcyclohexane-1-carboxamido)-3-phenyl butanoate]: the figures for the EC50 on pig TRPM8 and on human TRPM8 were 729 nM and 353 nM, respectively.
Turning to `Cc1cccc([C@@H](O)CNC(=O)[C@]2(O)C[C@H](C)CC[C@H]2C(C)C)c1` [Example 45, (1S,2S,5R)-1-hydroxy-N-((2R)-hydroxy-2-(m-tolyl)ethyl)-2-isopropyl-5-methylcyclohexane-1-carboxamide], the EC50 at pig TRPM8 stood at 18.2 nM; on human TRPM8, 48.5 nM.
On the same counts, the results for `CC(C)[C@@H]1CC[C@@H](C)C[C@@]1(O)C(=O)NC[C@H](O)c1ccccc1` [Example 178, (1S,2S,5R)-1-hydroxy-N-((2R)-2-hydroxy-2-phenylethyl)-2-isopropyl-5-methylcyclohexane-1-carboxamide] are 358 nM and 1260 nM.
With `COCCOCCOCCOc1cccc(CCNC(=O)[C@]2(O)C[C@H](C)CC[C@H]2C(C)C)c1` [Example 185, (1S,2S,5R)-1-hydroxy-2-isopropyl-N-[2-[3-[2-[2-(2-methoxyethoxy)ethoxy]ethoxy]phenyl]ethyl]-5-methyl-cyclohexanecarboxamide], the EC50 on pig TRPM8 came to 68.1 nM; on human TRPM8 it was 110 nM.
With `CC(C)[C@@H]1CC[C@@H](C)C[C@@]1(O)C(=O)NCC1OCCc2ccccc21` (single isomer, unassigned) [Example 97], the EC50 stood at 29.2 nM on pig TRPM8 and 11.1 nM on human TRPM8.
On the same counts, the results for `CC(C)[C@@H]1CC[C@@H](C)C[C@@]1(O)C(=O)NCCc1c[nH]c2ccc(O)cc12` [Example 169, (1S,2S,5R)-1-hydroxy-N-[2-(5-hydroxy-1H-indol-3-yl)ethyl]-2-isopropyl-5-methyl-cyclohexanecarboxamide] are 27.4 nM and 20.9 nM.
For `CC(C)[C@@H]1CC[C@@H](C)C[C@@]1(O)C(=O)NCC(=O)c1ccc(Cl)cc1` [Example 134, (1S,2S,5R)-N-[2-(4-chlorophenyl)-2-oxo-ethyl]-1-hydroxy-2-isopropyl-5-methyl-cyclohexanecarboxamide], the EC50 at pig TRPM8 is 1.3 nM; on human TRPM8, 3.4 nM.
On the same counts, the results for `CC(C)[C@@H]1CC[C@@H](C)C[C@@]1(O)C(=O)NCCc1cccc(C(=O)OC[C@H](C)O)c1` [Example 105, (S)-2-hydroxypropyl 3-(2-((1S,2S,5R)-1-hydroxy-2-isopropyl-5-methylcyclohexane-1-carboxamido)ethyl)benzoate] are 28.4 nM and 30.8 nM.
For `COc1ccc(OC)c(CCNC(=O)[C@]2(O)C[C@H](C)CC[C@H]2C(C)C)c1` [Example 128, (1S,2S,5R)-N-[2-(2,5-dimethoxyphenyl)ethyl]-1-hydroxy-2-isopropyl-5-methyl-cyclohexanecarboxamide], the EC50 at pig TRPM8 was 212 nM; at human TRPM8, 303 nM.
For `CC(C)[C@@H]1CC[C@@H](C)C[C@@]1(O)C(=O)NCC(=O)c1c[nH]c2ccccc12` [Example 150, (1S,2S,5R)-1-hydroxy-N-[2-(1H-indol-3-yl)-2-oxo-ethyl]-2-isopropyl-5-methyl-cyclohexanecarboxamide], the EC50 on pig TRPM8 and on human TRPM8 was 4 nM each time.
Turning to `Cc1cccc(C(=O)CNC(=O)[C@]2(O)C[C@H](C)CC[C@H]2C(C)C)c1` [Example 141, (1S,2S,5R)-1-hydroxy-2-isopropyl-5-methyl-N-[2-(m-tolyl)-2-oxo-ethyl]cyclohexanecarboxamide], the results for the EC50 on pig TRPM8 and at human TRPM8 were 1.2 nM and 2.7 nM, respectively.
For `Cc1[nH]c2ccccc2c1CCNC(=O)[C@]1(O)C[C@H](C)CC[C@H]1C(C)C` [Example 153, (1S,2S,5R)-1-hydroxy-2-isopropyl-5-methyl-N-[2-(2-methyl-1H-indol-3-yl)ethyl]cyclohexanecarboxamide], the values for the EC50 at pig TRPM8 and on human TRPM8 were 76 nM and 130 nM, respectively.
`CC(C)[C@@H]1CC[C@@H](C)C[C@@]1(O)C(=O)NCC(=O)c1ccc(Cl)cc1Cl` [Example 137, (1S,2S,5R)-N-[2-(2,4-dichlorophenyl)-2-oxo-ethyl]-1-hydroxy-2-isopropyl-5-methyl-cyclohexanecarboxamide]: the EC50 at pig TRPM8 turned out to be 41.6 nM; on human TRPM8, 125 nM.
On the same counts, the results for `CC(C)[C@@H]1CC[C@@H](C)C[C@@]1(O)C(=O)NCc1cccc(CO)c1` [Example 161, (1S,2S,5R)-1-hydroxy-N-[[3-(hydroxymethyl)phenyl]methyl]-2-isopropyl-5-methyl-cyclohexanecarboxamide] are 516 nM and 882 nM.

Source of the values: US20240124408A1 (Sanofi, priority 2020, published 2024).
